Laboratory results reported in ChEMBL document CHEMBL1201862, “PubChem BioAssay data set” (2004).
Where “and” joins values, the source holds several entries; their conditions need not be identical. Equal entries are not always repeated.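 All cell lines were grown in 96-well plates and treated with compound for 48 hours. Here, GI50 denotes the concentration required for 50% inhibition of growth.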 Calls of active or inactive are those of the source. Rule as the data show it: active = GI50 up to about 1.1 µM and inactive = higher. Non-standard residues stand in square brackets, D forms with d. Residues, ends and D or L forms follow the SMILES beside them. *: point of attachment. X30 = COC1=CC(=O)N(C(=O)[C@@H](O*)C(C)C)[C@H]1Cc1ccccc1; NMeL = CN[C@@H](CC(C)C)C(=O)O; Cbz = O=C(OCc1ccccc1)*

Key:
Experiment in all cases: NCI anticancer screen, dose series, 48 h
ACHN = tested on: ACHN
BT-549 = tested on: BT-549
CAKI-1 = tested on: CAKI-1
EKVX = tested on: EKVX
HL-60 = tested on: HL-60
Hs-578T = tested on: Hs-578T
IGROV-1 = tested on: IGROV-1
M14 = tested on: M14
MDA-MB-435 = tested on: MDA-MB-435
MOLT-4 = tested on: MOLT-4
NCI-H226 = tested on: NCI-H226
OVCAR-8 = tested on: OVCAR-8
RPMI-8226 = tested on: RPMI-8226
SR = tested on: SR
SW-620 = tested on: SW-620
TK-10 = tested on: TK-10
UACC-257 = tested on: UACC-257
UACC-62 = tested on: UACC-62
UO-31 = tested on: UO-31
MDA-N = tested on: MDA-N

Compound | GI50 (ACHN) | GI50 (BT-549) | GI50 (CAKI-1) | GI50 (EKVX) | GI50 (HL-60) | GI50 (Hs-578T) | GI50 (IGROV-1) | GI50 (M14) | GI50 (MDA-MB-435) | GI50 (MOLT-4) | GI50 (NCI-H226) | GI50 (OVCAR-8) | GI50 (RPMI-8226) | GI50 (SR) | GI50 (SW-620) | GI50 (TK-10) | GI50 (UACC-257) | GI50 (UACC-62) | GI50 (UO-31) | GI50 (MDA-N)
CN(C)CCn1c(=O)c2ccc(NCCCN(C)CCCNc3ccc4c(=O)n(CCN(C)C)c(=O)n5c6ccccc6c(=O)c3c45)c3c(=O)c4ccccc4n(c1=O)c23 | < 0.01 µM (active) | 0.117 µM (active) | 0.0172 µM (active) | 0.051 µM (active) | < 0.01 µM (active) | 0.131 µM (active) | < 0.01 µM (active) | 0.167 µM (active) | < 0.0151 µM (active) | < 0.01 µM (active) | < 0.01 µM (active) | < 0.01 µM (active) | < 0.01 µM (active) | < 0.01 µM (active) | < 0.01 µM (active) | 0.0593 µM (active) | 0.208 µM (active) | 0.151 µM (active) | < 0.0285 µM (active) | 
C[C@H](NC(=O)C(Cc1ccccc1)(Cc1ccc(O)cn1)NC(=O)c1ccccc1)c1ccccc1 (stereo partly drawn) | 18.9 µM (inactive) | 18.1 µM (inactive) | 26.9 µM (inactive) | 14.7 µM (inactive) | 25.1 µM (inactive) | 16.7 µM (inactive) | 16.3 µM (inactive) | 15.3 µM (inactive) | 16.5 µM (inactive) | 16.9 µM (inactive) | 19.7 µM (inactive) | 20.4 µM (inactive) | 21.1 µM (inactive) |  | 22.5 µM (inactive) | 29.9 µM (inactive) | 17.7 µM (inactive) | 13.2 µM (inactive) | 14.8 µM (inactive) | 15.5 µM (inactive)
Cc1sc2ccccc2[n+]1CCC(=O)O | > 100 µM (inactive) | > 100 µM (inactive) | > 100 µM (inactive) | > 100 µM (inactive) | 11.5 µM (inactive) | > 100 µM (inactive) | > 100 µM (inactive) | > 100 µM (inactive) | > 100 µM (inactive) |  | > 100 µM (inactive) | > 100 µM (inactive) | > 100 µM (inactive) |  | > 100 µM (inactive) | > 100 µM (inactive) | > 100 µM (inactive) | > 100 µM (inactive) |  | > 100 µM (inactive)
CC(=O)OCC1OC(n2c(-c3ccccc3)c(/N=N/c3ccc(C)cc3)c(C)c(C#N)c2=S)C(OC(C)=O)C(OC(C)=O)C1OC(C)=O (stereo not drawn) | > 100 µM (inactive) | 6.44 µM (inactive) | 22.9 µM (inactive) |  | 2.82 µM (inactive) |  |  | 3.16 µM (inactive) | 9.06 µM (inactive) | 3.67 µM (inactive) |  |  | 8 µM (inactive) | 8.99 µM (inactive) | 2.31 µM (inactive) | 23.6 µM (inactive) | 32.1 µM (inactive) |  | > 10 µM (inactive) | 7.36 µM (inactive)
O=C(Cc1ccccc1)NN1C(=O)/C(=C\c2ccccc2O)S/C1=N\c1ccccc1 | > 100 µM (inactive) | > 100 µM (inactive) |  | > 100 µM (inactive) |  | > 100 µM (inactive) | > 100 µM (inactive) | > 100 µM (inactive) | > 100 µM (inactive) | > 100 µM (inactive) | > 100 µM (inactive) | > 100 µM (inactive) | > 100 µM (inactive) |  | > 100 µM (inactive) | > 100 µM (inactive) | > 100 µM (inactive) | > 100 µM (inactive) | > 100 µM (inactive) | > 100 µM (inactive)
CCCCSC1=N/C(=C\c2ccc(N(C)C)cc2)C(NN)=N1 | > 100 µM (inactive) | > 100 µM (inactive) | > 100 µM (inactive) | > 100 µM (inactive) | > 100 µM (inactive) | > 100 µM (inactive) | > 100 µM (inactive) | > 100 µM (inactive) | > 100 µM (inactive) | > 100 µM (inactive) |  | > 100 µM (inactive) | > 100 µM (inactive) |  | > 100 µM (inactive) | > 100 µM (inactive) | > 100 µM (inactive) | > 100 µM (inactive) |  | > 100 µM (inactive)
CC(C)(C)c1cc(C(=O)/C=C/C=C/c2ccccc2)cc(C(C)(C)C)c1O | 29.2 µM (inactive) | 18.5 µM (inactive) | 29 µM (inactive) | 25.4 µM (inactive) | 1.55 µM (inactive) | 25.7 µM (inactive) | 33.3 µM (inactive) | 17.2 µM (inactive) | 11.2 µM (inactive) | 12.8 µM (inactive) | 24.3 µM (inactive) | 19.5 µM (inactive) | 6.97 µM (inactive) | 3.24 µM (inactive) | 11.5 µM (inactive) | 19.5 µM (inactive) | 6.53 µM (inactive) | 18.1 µM (inactive) | 17.6 µM (inactive) | 
C/C(=N\NC(=S)N1CC2CCC(CC2)C1)c1cccc(C)n1 | 0.59 µM (active) | 1.32 µM (inactive) | 1.11 µM (active) | 0.488 µM (active) | 0.01 µM (active) | 4.11 µM (inactive) | 0.815 µM (active) | 0.269 µM (active) | 1.77 µM (inactive) | 0.01 µM (active) | 0.841 µM (active) | 0.294 µM (active) | 0.31 µM (active) |  | 0.148 µM (active) | 2.54 µM (inactive) | 0.142 µM (active) | 0.621 µM (active) | 0.505 µM (active) | 2.82 µM (inactive)
COc1ccccc1/N=N/c1c(O)ccc2ccccc12 | 13.6 µM (inactive) | 84.3 µM (inactive) | 18.7 µM (inactive) and 25.6 µM (inactive) |  |  | 28.7 µM (inactive) and 26.6 µM (inactive) |  |  | 74 µM (inactive) and 78.2 µM (inactive) | 64.3 µM (inactive) |  | 25.8 µM (inactive) and 30.3 µM (inactive) |  | 24.3 µM (inactive) | 56.8 µM (inactive) and 66.7 µM (inactive) | 14.6 µM (inactive) and 23.4 µM (inactive) |  |  | 17.9 µM (inactive) and > 10 µM (inactive) | 45.7 µM (inactive) and > 80.4 µM (inactive)
COc1nc2c(c(=O)[nH]1)N=C(c1ccc(Cl)cc1)CC(c1ccccc1)N2 (stereo not drawn) | 23.1 µM (inactive) | 31.2 µM (inactive) | 28.2 µM (inactive) | 29.6 µM (inactive) |  |  | 31.9 µM (inactive) | 17.3 µM (inactive) | 34 µM (inactive) | 35.6 µM (inactive) | 29.4 µM (inactive) | 21.2 µM (inactive) | 28.4 µM (inactive) | 61.4 µM (inactive) | 44.6 µM (inactive) |  | 36.8 µM (inactive) | 20.2 µM (inactive) | 29.6 µM (inactive) | 31 µM (inactive)
COc1cccc(/C=N/n2c(Cc3ccccc3)n[nH]c2=O)c1 | > 100 µM (inactive) | > 100 µM (inactive) | > 47.4 µM (inactive) | > 72.6 µM (inactive) |  | 26.7 µM (inactive) |  | > 100 µM (inactive) | > 100 µM (inactive) | > 100 µM (inactive) |  | 69 µM (inactive) | > 100 µM (inactive) |  | > 100 µM (inactive) | > 100 µM (inactive) | > 100 µM (inactive) | > 100 µM (inactive) | > 100 µM (inactive) | > 100 µM (inactive)
O=c1[nH]nc(-c2ccccc2)n1/N=C/c1cccs1 | 70 µM (inactive) | 27.5 µM (inactive) | > 100 µM (inactive) | 83.6 µM (inactive) |  | 56 µM (inactive) |  | > 100 µM (inactive) | 28.2 µM (inactive) | 31.6 µM (inactive) | 59.4 µM (inactive) | 37.4 µM (inactive) | 27.1 µM (inactive) |  | 82 µM (inactive) |  | 56.8 µM (inactive) | 46.7 µM (inactive) | 58.3 µM (inactive) | 74.8 µM (inactive)
O=C(O/C=C\OC1CCCC1(c1ccccc1)c1ccccc1)c1ccccc1 (stereo not drawn) | 4.1 µM (inactive) | 2.12 µM (inactive) | > 46.1 µM (inactive) | 17.5 µM (inactive) | 1.84 µM (inactive) | 7.05 µM (inactive) | 2.6 µM (inactive) | 2.79 µM (inactive) |  | 4.29 µM (inactive) | 19.8 µM (inactive) | 3 µM (inactive) | 2.61 µM (inactive) | 2.17 µM (inactive) | 2.7 µM (inactive) | 5.01 µM (inactive) | 15.8 µM (inactive) | 6.28 µM (inactive) | 1.87 µM (inactive) | 3.47 µM (inactive)
COC(=O)c1cnc(Cl)cn1 | 71 µM (inactive) | 37 µM (inactive) | 17.5 µM (inactive) | 33.3 µM (inactive) | 32.7 µM (inactive) | 50.6 µM (inactive) | 29.4 µM (inactive) | 53.8 µM (inactive) | 48.4 µM (inactive) | 41.4 µM (inactive) | 35.2 µM (inactive) | 73.5 µM (inactive) | 21 µM (inactive) | 42.5 µM (inactive) | 63.7 µM (inactive) | > 100 µM (inactive) | 57.9 µM (inactive) | 33 µM (inactive) | 20.2 µM (inactive) | 
COC1=CC(=O)N(C(=O)[C@@H](OC(=O)[C@@H]2CCCN2C(=O)[C@@H]2CCCN2C(=O)[C@H](CC(C)C)N(C)C(=O)[C@@H](NC(=O)[C@@H](NC(=O)OCc2ccccc2)C(C)C)C(C)C)C(C)C)[C@H]1Cc1ccccc1 (Cbz-VV[NMeL]PP-X30) | > 100 µM (inactive) | 23.1 µM (inactive) | > 100 µM (inactive) | > 100 µM (inactive) | > 100 µM (inactive) | > 100 µM (inactive) | 79.1 µM (inactive) | 70.1 µM (inactive) | > 100 µM (inactive) |  | > 100 µM (inactive) | > 100 µM (inactive) | 17.6 µM (inactive) |  | > 100 µM (inactive) | 64.7 µM (inactive) | 76 µM (inactive) | 48.1 µM (inactive) | > 100 µM (inactive) | > 100 µM (inactive)
